Patent publication US9102656B2, “Use of rosuvastatin lactols as medicaments” (RedX Pharma Limited, priority 2009, dated 2015)
pIC50: −log10 of the molar value. Where a name gives a salt, the structure may show the parent alone.

Assays:
HMG-CoA reductase = HMG-CoA reductase (Homo sapiens (Human), UniProt P04035); test: HMG-CoA Reductase assay kit (spectrophotometric NADPH absorbance at 340 nm); assay type: biochemical; details: inhibitor concentrations varied from 0 nM to 50 nM; 37° C.
Description: All assays were carried out in a reaction buffer containing […] KxPO4 at pH 7.2, 1 mM EDTA, 500 mM KCl and 1 mg/ml BSA. The concentrations of NADPH and HMG-CoA were both 200 μM. […] Absorbance readings were then taken every 20 seconds for 600 seconds. […] After these were identified, assays were carried out varying their concentrations from 0 nM to 50 nM allowing IC50 values to be calculated.
Add a buffer to all samples. • b. […] Add the reconstituted NADPH to all samples. • d. Add Substrate Solution (HMG-CoA) to all samples. • e. […] Mix the samples thoroughly. 3. The kinetics programme was started immediately.

plasma triglycerides = test: Rat plasma triglyceride levels after 3 or 5 days BID oral treatment; assay type: in vivo; details: male SD rats, 25 mg/kg po BID for 3 or 5 days, plasma 16 hours after last dose
Description: The measurement of the change in rat plasma triglyceride levels is considered to be a fair test for determining HMG CoA reductase activity.
112 male SD rats (Harlan) were housed in groups of 6 under a 12 h light dark cycle (lights on 07.00 h) with free access to food (normal laboratory chow) and water. Animals between 148-183 g were allocated to treatment groups of 8 balanced by body weight and treatments were balanced across cages.
Four rosuvastatin analogues were made up in 10% PEG300/10% cremophor/80% methyl cellulose (0.5%) (vehicle 1) to make a 5 mg/mL solution. The rosuvastatin compounds used were:
Rosuvastatin Lactol n-propyl acetal (diastereomeric ratio 2/1) (BPL001); Rosuvastatin lactol n-propyl acetal nicotinoyl ester (diastereomeric ratio 2/1) (BPL002); Rosuvastatin lactol iso-propyl acetal benzyl ether (BPL003); and Rosuvastatin lactol methyl acetal nicotinoyl ester (diastereomeric ratio 2/1) (BPL004).
Rosuvastatin was formulated in 0.5% Tween in 0.5% methyl cellulose (vehicle 2) at 5 mg/kg as a suspension.
Rats were orally dosed with vehicle 1, one of the four rosuvastatin analogues in vehicle 1 (25 mg/kg), vehicle 2 or rosuvastatin in vehicle 2 (25 mg/kg po), BID for 3 or 5 days. […]
Data for each time-point were analysed by 1-way ANOVA and post-hoc Dunnett's test.

Chain of HMG-CoA reductase (P04035 340-888): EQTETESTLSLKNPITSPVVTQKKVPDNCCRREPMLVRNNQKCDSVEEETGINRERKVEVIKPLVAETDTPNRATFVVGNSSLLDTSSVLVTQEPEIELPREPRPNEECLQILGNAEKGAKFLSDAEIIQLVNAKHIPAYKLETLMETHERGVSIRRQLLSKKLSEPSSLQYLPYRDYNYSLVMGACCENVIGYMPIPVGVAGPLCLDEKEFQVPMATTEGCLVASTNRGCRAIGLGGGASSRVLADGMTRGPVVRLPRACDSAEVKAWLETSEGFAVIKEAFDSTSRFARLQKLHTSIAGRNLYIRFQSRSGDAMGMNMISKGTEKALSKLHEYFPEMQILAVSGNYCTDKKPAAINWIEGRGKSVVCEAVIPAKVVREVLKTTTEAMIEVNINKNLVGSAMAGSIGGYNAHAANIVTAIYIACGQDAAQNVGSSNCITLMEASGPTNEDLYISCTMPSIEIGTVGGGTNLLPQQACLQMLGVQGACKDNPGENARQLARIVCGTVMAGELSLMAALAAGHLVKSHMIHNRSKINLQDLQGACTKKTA

Row | pIC50 (HMG-CoA reductase) | SMILES | effect on plasma triglycerides (plasma triglycerides)
1 | > 9.00 | COC1C[C@H](OC(=O)c2cccnc2)C[C@@H](/C=C/c2c(-c3ccc(F)cc3)nc(N(C)S(C)(=O)=O)nc2C(C)C)O1 (stereo partly drawn) | –
2 | 8.40 | CC(C)c1nc(N(C)S(C)(=O)=O)nc(-c2ccc(F)cc2)c1/C=C/[C@@H](O)C[C@@H](O)CC(=O)O [Rosuvastatin calcium salt] | –
3 | – | CC(C)c1nc(N(C)S(C)(=O)=O)nc(-c2ccc(F)cc2)c1C=CC(O)CC(O)CC(=O)O (stereo not drawn) [rosuvastatin, 7-[4-(4-fluorophenyl)-6-(1-methylethyl)-2-(methyl-methylsulfonyl-amino)-pyrimidin-5-yl]-3,5-dihydroxy-hept-6-enoic acid] | marked reduction in plasma triglycerides
